The values that follow come from BindingDB's records for patent WO2022115301 (MERCK SHARP & DOHME LLC, 2022).

The target in the assay is T1, Ceramide glucosyltransferase (Homo sapiens, UniProt Q16739).
T1 sequence (Q16739 whole entry): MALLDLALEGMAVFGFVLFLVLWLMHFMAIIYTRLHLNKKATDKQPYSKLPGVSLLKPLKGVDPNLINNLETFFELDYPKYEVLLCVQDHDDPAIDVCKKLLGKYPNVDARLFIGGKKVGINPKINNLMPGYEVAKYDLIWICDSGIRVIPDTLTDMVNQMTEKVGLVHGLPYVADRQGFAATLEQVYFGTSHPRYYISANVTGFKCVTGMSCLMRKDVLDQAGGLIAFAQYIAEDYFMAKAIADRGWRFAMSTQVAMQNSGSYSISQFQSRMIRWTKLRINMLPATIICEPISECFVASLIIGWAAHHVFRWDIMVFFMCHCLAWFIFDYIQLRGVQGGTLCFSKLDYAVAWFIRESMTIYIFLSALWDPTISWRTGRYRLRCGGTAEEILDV
The assay is described as follows: UDP-Glo Glucosylceramide Synthase Biochemical Assay. Here is the method: Using Promega s UDP-Glo Glycosyltransferase assay kit (Promega Corporation, Madison, WI, USA (Promega)), GCS activity was indirectly measured by detecting the amount of UDP produced. An aliquot of GCS enzyme (1.5 µg crude golgi preparation, total protein) and titrated test compound were aliquoted to each well and incubated for 30 minutes at room temperature. […] An equivalent volume of substrate mixture was then added to each well. Following a 20 h incubation at room temperature to allow for GCS turnover of substrate, an equal volume of UDP detection reagent (Promega) was added to each well and incubated for an additional 75 minutes at room temperature to simultaneously convert the accumulated UDP product into ATP and generate light in a luciferase reaction. The generated light was detected using a luminometer. […] luminescence values (RLUs) were normalized to mean min and max effects, as determined on each plate. […] See Levenberg, K., A Method for the Solution of Certain Problems in Least Squares , Quart. Appl.
For `Cn1cc(-c2ccc(-c3cccc4c3C(=O)N([C@H](C3CC3)C(C)(C)O)C4)cc2)cn1` [WO2022115301, Example 15], a half-maximal response (EC50) required 6.4 nM. This counts as single-digit nanomolar.
The figure for `CC(C)(O)[C@@H](C1CC1)N1Cc2cccc(-c3ccc(-n4nccn4)cc3)c2C1=O` [WO2022115301, Example 17] is 580 nM; for `Cn1cc(-c2ccc(-c3cc(F)cc4c3C(=O)N([C@H](C3CC3)C(C)(C)O)C4)cc2)cn1` [WO2022115301, Example 24] it is 0.93 nM; for `CC(C)(O)[C@@H](C1CC1)N1Cc2cccc(-c3cccc4c3OC(F)(F)O4)c2C1=O` [WO2022115301, Example 16] it is 39 nM.
For `COc1cc(C#N)cc(-c2cccc3c2C(=O)N([C@H](C2CC2)C(C)(C)O)C3)c1` [WO2022115301, Example 8] the value was 7.5 nM.
Take `Cc1nnc(-c2ccc(-c3cccc4c3C(=O)N([C@H](C3CC3)C(C)(C)O)C4)cc2F)o1` [WO2022115301, Example 9]: the 50% effective concentration (EC50) (commonly the concentration at which the effect is half-maximal) was 24 nM. Compared with the last compound, the EC50 is about 3.2-fold higher.
The compound `Cn1c(=O)n(C)c2cc(-c3cccc4c3C(=O)N([C@H](C3CC3)C(C)(C)O)C4)ccc21` [WO2022115301, Example 6] yielded an EC50 of 4.5 nM.
The figure for `CC(C)(O)[C@@H](C1CC1)N1Cc2cccc(-c3cccc(OCC(F)(F)F)c3)c2C1=O` [WO2022115301, Example 14] is 48 nM.
The compound `Cc1n[nH]c2cc(F)c(-c3cccc4c3C(=O)N([C@H](C3CC3)C(C)(C)O)C4)cc12` [WO2022115301, Example 11] registered a concentration giving a half-maximal response (EC50) of 4.9 nM.
The figure for `CC(C)(O)[C@@H](C1CC1)N1Cc2cccc(-c3ccccc3OCC(F)(F)F)c2C1=O` [WO2022115301, Example 7] is 3.6 nM.
For `CN1Cc2cc(-c3cc(F)cc4c3C(=O)N([C@H](C3CC3)C(C)(C)O)C4)ccc2C1=O` [WO2022115301, Example 25] the value was 9.2 nM; for `Cn1ncc2cc(-c3cccc4c3C(=O)N([C@H](C3CC3)C(C)(C)O)C4)ccc21` [WO2022115301, Example 12], 13 nM.
For `CC(C)(O)[C@@H](C1CC1)N1Cc2cccc(-c3ccc(-c4nnco4)cc3)c2C1=O` [WO2022115301, Example 5] the value was 52 nM.
`COc1cc(Cl)cc(-c2cccc3c2C(=O)N([C@H](C2CC2)C(C)(C)O)C3)c1` [WO2022115301, Example 10]: the response was half-maximal at 2.8 nM (EC50).
